Data on 86 molecules can be found in patent US8106197B2, “Aminoheteroaryl compounds as protein kinase inhibitors” (Pfizer Inc., priority 2003, dated 2012).

The assay addresses T1, HGFR (Homo sapiens, UniProt P08581).
T1 construct: purchased Upstate 14-526
Briefly: HGFR continuous-coupled spectrophotometric assay. It is filed as biochemical. The following applies: Table 6; percent c-MET inhibition at 1 μM; read-out: % inhibition.

T1 sequence (P08581 974-1390 limits assumed): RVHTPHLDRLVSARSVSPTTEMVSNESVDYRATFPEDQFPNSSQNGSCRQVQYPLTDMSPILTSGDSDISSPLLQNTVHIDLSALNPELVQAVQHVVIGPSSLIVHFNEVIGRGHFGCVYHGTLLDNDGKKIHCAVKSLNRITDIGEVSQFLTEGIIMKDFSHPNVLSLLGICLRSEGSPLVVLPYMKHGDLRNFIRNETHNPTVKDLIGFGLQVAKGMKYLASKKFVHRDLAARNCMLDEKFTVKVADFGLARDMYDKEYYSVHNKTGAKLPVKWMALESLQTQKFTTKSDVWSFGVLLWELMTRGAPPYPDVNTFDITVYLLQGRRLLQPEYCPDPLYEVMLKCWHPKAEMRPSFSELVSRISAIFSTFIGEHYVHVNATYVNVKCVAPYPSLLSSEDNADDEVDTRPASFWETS

For orientation: inhibition means the change of the read-out against control, counted positive when it falls. Consider `Nc1ncc(C(=O)NC(CO)Cc2ccc(Cl)cc2)cc1OCc1c(Cl)cccc1Cl` (centres unmarked), for which the inhibition at 1 µM was determined as 27%.
As to `COc1ccccc1CNC(=O)c1cnc(N)c(OCc2c(Cl)cccc2Cl)c1`, the inhibition at 1 µM came out at 32%.
For `Nc1ncc(C(=O)NC2CCN(Cc3ccccc3)C2)cc1OCc1c(Cl)cccc1Cl` (centres unmarked), the inhibition at 1 µM worked out at 27%.
Then `Nc1ncc(C(=O)NCCc2c[nH]cn2)cc1OCc1c(Cl)cccc1Cl`, with 29%.
Consider `CN(C)c1ccc(CNC(=O)c2cnc(N)c(OCc3c(Cl)cccc3Cl)c2)cc1`, for which the inhibition at 1 µM came to 30%.
The value for `Nc1ncc(C(=O)NCCc2ccc(S(N)(=O)=O)cc2)cc1OCc1c(Cl)cccc1Cl` was 30%; that for `NC(=O)C1CCCN(C(=O)c2cnc(N)c(OCc3c(Cl)cccc3Cl)c2)C1` (centres unmarked) was 39%.
The value for `Nc1ncc(C(=O)NC2CCSC2=O)cc1OCc1c(Cl)cccc1Cl` (centres unmarked) was 35%.
The value for `Nc1ncc(C(=O)N2CCCC(O)C2)cc1OCc1c(Cl)cccc1Cl` (centres unmarked) was 33%; that for `CN(CC#N)C(=O)c1cnc(N)c(OCc2c(Cl)cccc2Cl)c1` was 30%; that for `CC(O)CCNC(=O)c1cnc(N)c(OCc2c(Cl)cccc2Cl)c1` (centres unmarked) was 35%.
With `Nc1ncc(C(=O)NCCO)cc1OCc1c(Cl)cccc1Cl`, the inhibition at 1 µM came to 34%.
Then `Nc1ncc(C(=O)NCCc2ccncc2)cc1OCc1c(Cl)cccc1Cl`, with 30%; and `CCCC(CO)NC(=O)c1cnc(N)c(OCc2c(Cl)cccc2Cl)c1` (centres unmarked), with 30%; and `Nc1ncc(C(=O)NCCOc2ccccc2)cc1OCc1c(Cl)cccc1Cl`, with 66%.
The value for `C[C@@H]1CN(C(=O)c2cnc(N)c(OCc3c(Cl)cccc3Cl)c2)C[C@H](C)O1` was 32%; that for `CN(C)C1CCN(C(=O)c2cnc(N)c(OCc3c(Cl)cccc3Cl)c2)C1` (centres unmarked) was 33%; that for `Nc1ncc(C(=O)NCc2ccc(F)cc2F)cc1OCc1c(Cl)cccc1Cl` was 33%.
The value for `CN(CCC(O)c1ccccc1)C(=O)c1cnc(N)c(OCc2c(Cl)cccc2Cl)c1` (centres unmarked) was 28%.
As to `COc1cc(CCNC(=O)c2cnc(N)c(OCc3c(Cl)cccc3Cl)c2)cc(OC)c1O`, the inhibition at 1 µM was found to be 25%.
Regarding `COCCN1CCN(C(=O)c2cnc(N)c(OCc3c(Cl)cccc3Cl)c2)CC1`, the inhibition at 1 µM came out at 27%.
`Nc1ncc(C(=O)NCc2cccc(OC(F)F)c2)cc1OCc1c(Cl)cccc1Cl`: the inhibition at 1 µM is 32%.
The value for `Nc1ncc(C(=O)NCc2ccc(F)cc2Cl)cc1OCc1c(Cl)cccc1Cl` was 37%; that for `Nc1ncc(C(=O)NCC(O)c2ccc(O)cc2)cc1OCc1c(Cl)cccc1Cl` (centres unmarked) was 29%.
Then `Nc1ncc(C(=O)N2CCC(C(=O)c3ccccc3)CC2)cc1OCc1c(Cl)cccc1Cl`, with 32%.
Take `NC(=O)CCNC(=O)c1cnc(N)c(OCc2c(Cl)cccc2Cl)c1`: the inhibition at 1 µM was 28%.
As to `CC(CN(C)C)NC(=O)c1cnc(N)c(OCc2c(Cl)cccc2Cl)c1` (centres unmarked), the inhibition at 1 µM came to 45%.
The value for `CCCOCCNC(=O)c1cnc(N)c(OCc2c(Cl)cccc2Cl)c1` was 45%; that for `CC(C)OCCNC(=O)c1cnc(N)c(OCc2c(Cl)cccc2Cl)c1` was 46%; that for `Nc1ncc(C(=O)N2CCC(CO)CC2)cc1OCc1c(Cl)cccc1Cl` was 43%.
`Nc1ncc(C(=O)N2CCC(CCO)CC2)cc1OCc1c(Cl)cccc1Cl`: the inhibition at 1 µM was determined as 45%.
The value for `CN(CC(N)=O)C(=O)c1cnc(N)c(OCc2c(Cl)cccc2Cl)c1` was 39%; that for `CC(C)CC(NC(=O)c1cnc(N)c(OCc2c(Cl)cccc2Cl)c1)C(N)=O` (centres unmarked) was 40%; that for `Nc1ncc(C(=O)N2CCN(CCCN3CCOCC3)CC2)cc1OCc1c(Cl)cccc1Cl` was 40%.
Then `CN(C)C(=O)CN1CCN(C(=O)c2cnc(N)c(OCc3c(Cl)cccc3Cl)c2)CC1`, with 42%; and `Nc1ncc(C(=O)NCCN2CCN(Cc3ccccc3)CC2)cc1OCc1c(Cl)cccc1Cl`, with 36%.
Take `Nc1ncc(C(=O)NC[C@H]2CC[C@H](c3nc4ccccc4[nH]3)CC2)cc1OCc1c(Cl)cccc1Cl`: the inhibition at 1 µM was found to be 38%.
In the case of `Nc1ncc(C(=O)NCc2ccc(C(F)(F)F)nc2)cc1OCc1c(Cl)cccc1Cl`, the inhibition at 1 µM is 17%.
Then `CN(C)C(=O)c1cnc(N)c(OCc2c(Cl)cccc2Cl)c1`, with 10%; and `Nc1ncc(C(=O)N2CCN(c3ccc(Br)cn3)CC2)cc1OCc1c(Cl)cccc1Cl`, with 5%; and `Cc1ccc(N2CCN(CCCCNC(=O)c3cnc(N)c(OCc4c(Cl)cccc4Cl)c3)CC2)cc1`, with 15%.
Turning to `Nc1ncc(C(=O)N2CCS(=O)(=O)CC2)cc1OCc1c(Cl)cccc1Cl`, the inhibition at 1 µM worked out at 10%.
The value for `C[C@@H]1CCC[C@H](C)N1CCNC(=O)c1cnc(N)c(OCc2c(Cl)cccc2Cl)c1` was 2%; that for `Nc1ncc(C(=O)N[C@@H]2CCC[C@H]2OCc2ccccc2)cc1OCc1c(Cl)cccc1Cl` was 16%.
The value for `Nc1ncc(C(=O)NC[C@]2(O)CC[C@H](c3ccccc3)CC2)cc1OCc1c(Cl)cccc1Cl` was 15%; that for `Nc1ncc(C(=O)NCCc2cccc(O)c2)cc1OCc1c(Cl)cccc1Cl` was 17%; that for `N#CCCN1CCN(C(=O)c2cnc(N)c(OCc3c(Cl)cccc3Cl)c2)CC1` was 19%.
The value for `Nc1ncc(C(=O)NCc2cc3cc[nH]c3cn2)cc1OCc1c(Cl)cccc1Cl` was 28%; that for `Nc1ncc(C(=O)NCC(O)CN2CCC(Cc3ccccc3)CC2)cc1OCc1c(Cl)cccc1Cl` (centres unmarked) was 32%.
Take `Nc1ncc(C(=O)N2CCCN(Cc3ccc(F)cc3)CC2)cc1OCc1c(Cl)cccc1Cl`: the inhibition at 1 µM is 26%.
The value for `Cc1ccc(F)c(CNC(=O)c2cnc(N)c(OCc3c(Cl)cccc3Cl)c2)c1F` was 31%; that for `Nc1ncc(C(=O)NCc2c(F)cccc2F)cc1OCc1c(Cl)cccc1Cl` was 32%.
Take `Nc1ncc(C(=O)N2CCN(CC(=O)Nc3ccccn3)CC2)cc1OCc1c(Cl)cccc1Cl`: the inhibition at 1 µM is 56%.
`Nc1ncc(C(=O)N2CCN(Cc3cccc4ccccc34)CC2)cc1OCc1c(Cl)cccc1Cl`: the inhibition at 1 µM was determined as 26%.
Turning to `CCS(=O)(=O)N1CCN(C(=O)c2cnc(N)c(OCc3c(Cl)cccc3Cl)c2)CC1`, the inhibition at 1 µM was determined as 22%.
In the case of `Nc1ncc(C(=O)N2CCC(N3CCCCC3=O)CC2)cc1OCc1c(Cl)cccc1Cl`, the inhibition at 1 µM stood at 26%.
Regarding `Nc1ncc(C(=O)N2CCC3(CCNC3=O)CC2)cc1OCc1c(Cl)cccc1Cl`, the inhibition at 1 µM worked out at 27%.
Regarding `Nc1ncc(C(=O)N2CCNC(=O)CC2)cc1OCc1c(Cl)cccc1Cl`, the inhibition at 1 µM is 31%.
Then `Nc1ncc(C(=O)N2CCCC(C(=O)N3CCCC3)C2)cc1OCc1c(Cl)cccc1Cl` (centres unmarked), with 47%; and `Nc1ncc(C(=O)N2CCCC(C(=O)N3CCOCC3)C2)cc1OCc1c(Cl)cccc1Cl` (centres unmarked), with 21%; and `COCCNC(=O)C1CCCN(C(=O)c2cnc(N)c(OCc3c(Cl)cccc3Cl)c2)C1` (centres unmarked), with 20%.
The value for `CC(C)(O)c1ccc(CNC(=O)c2cnc(N)c(OCc3c(Cl)cccc3Cl)c2)cc1` was 24%; that for `Nc1ncc(C(=O)N2CCCC2c2ccncc2)cc1OCc1c(Cl)cccc1Cl` (centres unmarked) was 19%; that for `Nc1ncc(C(=O)NCCc2nc3ccccc3s2)cc1OCc1c(Cl)cccc1Cl` was 26%.
The value for `Nc1ncc(C(=O)NCC2=CSC3=NCCN23)cc1OCc1c(Cl)cccc1Cl` was 99%.
With `Nc1ncc(C(=O)NC2CCCNC2=O)cc1OCc1c(Cl)cccc1Cl` (centres unmarked), the inhibition at 1 µM was 16%.
Then `Cc1cc2cc(CNC(=O)c3cnc(N)c(OCc4c(Cl)cccc4Cl)c3)ccc2[nH]1`, with 20%.
Then `CN(C)C(CNC(=O)c1cnc(N)c(OCc2c(Cl)cccc2Cl)c1)c1cccnc1` (centres unmarked), with 18%; and `CS(=O)(=O)C1CCN(C(=O)c2cnc(N)c(OCc3c(Cl)cccc3Cl)c2)C1` (centres unmarked), with 23%; and `CN(CCS(C)(=O)=O)C(=O)c1cnc(N)c(OCc2c(Cl)cccc2Cl)c1`, with 26%.
Then `Nc1ncc(C(=O)NCCC2CCOCC2)cc1OCc1c(Cl)cccc1Cl`, with 31%.
For `CS(=O)(=O)CCN1CCN(C(=O)c2cnc(N)c(OCc3c(Cl)cccc3Cl)c2)CC1`, the inhibition at 1 µM turned out to be 25%.
Then `Nc1ncc(C(=O)NC(CO)c2cccnc2)cc1OCc1c(Cl)cccc1Cl` (centres unmarked), with 22%; and `Nc1ncc(C(=O)N2CCN(CC(=O)N3CCCCC3)CC2)cc1OCc1c(Cl)cccc1Cl`, with 24%; and `Nc1ncc(C(=O)N2CCC(Cc3ccc(F)cc3)CC2)cc1OCc1c(Cl)cccc1Cl`, with 41%.
For `Nc1ncc(C(=O)NCc2ncccc2O)cc1OCc1c(Cl)cccc1Cl`, the inhibition at 1 µM worked out at 24%.
Then `CCCCOc1ccc(CNC(=O)c2cnc(N)c(OCc3c(Cl)cccc3Cl)c2)cc1`, with 18%; and `Nc1ncc(C(=O)NCc2ccc(OC(F)F)cc2)cc1OCc1c(Cl)cccc1Cl`, with 26%.
Then `COc1ccc(C(CCO)NC(=O)c2cnc(N)c(OCc3c(Cl)cccc3Cl)c2)cc1` (centres unmarked), with 22%.
`Nc1ncc(C(=O)N2CCNC(=O)C2)cc1OCc1c(Cl)cccc1Cl`: the inhibition at 1 µM stood at 22%.
With `Nc1ncc(C(=O)NCc2c(F)cccc2C(F)(F)F)cc1OCc1c(Cl)cccc1Cl`, the inhibition at 1 µM amounted to 33%.
Turning to `Nc1ncc(C(=O)N2CCCC(F)(F)C2)cc1OCc1c(Cl)cccc1Cl`, the inhibition at 1 µM turned out to be 16%.
`Nc1ncc(C(=O)NCc2ccc[nH]c2=O)cc1OCc1c(Cl)cccc1Cl`: the inhibition at 1 µM turned out to be 16%.
Then `Cc1ccc2c(c1)C(NC(=O)c1cnc(N)c(OCc3c(Cl)cccc3Cl)c1)CCO2` (centres unmarked), with 17%.
The value for `CCN1CCCC(NC(=O)c2cnc(N)c(OCc3c(Cl)cccc3Cl)c2)C1` (centres unmarked) was 19%.
As to `Nc1ncc(C(=O)N2CCC(COCc3ccccc3F)CC2)cc1OCc1c(Cl)cccc1Cl`, the inhibition at 1 µM was found to be 10%.
